In patent US8933052B2, “Uracyl spirooxetane nucleosides” (Janssen Products, LP, priority 2009, dated 2015):
Where two headings read alike, the source gives them in different places.

Assays:
[1] = system: HIV; details: described in Org. Biomol. Chem., 2003, 3514-3526; cited from earlier work
[2] = system: HCV type 1b replicon; test: HCV replicon assay (Huh-Luc cells, luciferase readout); format: cell-based; details: Hepatitis C virus, 72 h, read-out: EC50 (μM) (HCV)
Source text: (§1) The in vitro antiviral activity against HCV of the compounds of formula I can be tested in a cellular HCV replicon system based on Lohmann et al. (1999) Science 285:110-113, with the further modifications described by Krieger et al. (2001) Journal of Virology 75: 4614-4624 (incorporated herein by reference), which is further exemplified in the examples section. This model, while not a complete infection model for HCV, is widely accepted as the most robust and efficient model of autonomous HCV RNA replication currently available. It will be appreciated that it is important to distinguish between compounds that specifically interfere with HCV functions from those that exert cytotoxic or cytostatic effects in the HCV replicon model, and as a consequence cause a decrease in HCV RNA or linked reporter enzyme concentration. Assays are known in the field for the evaluation of cellular cytotoxicity based for example on the activity of mitochondrial enzymes using fluorogenic redox dyes such as resazurin. Furthermore, cellular counter screens exist for the evaluation of non-selective inhibition of linked reporter gene activity, such as firefly luciferase. Appropriate cell types can be equipped by stable transfection with a luciferase reporter gene whose expression is dependent on a constitutively active gene promoter, and such cells can be used as a counter-screen to eliminate non-selective inhibitors.
The compounds of formula I were examined for activity in the inhibition of HCV-RNA replication in a cellular assay. […] The cellular assay was based on a bicistronic expression construct, as described by Lohmann et al. (1999) Science vol. 285 pp. 110-113 with modifications described by Krieger et al. (2001) Journal of Virology 75: 4614-4624, in a multi-target screening strategy.
In essence, the method was as follows. The assay utilized the stably transfected cell line Huh-7 luc/neo (hereafter referred to as Huh-Luc). This cell line harbors an RNA encoding a bicistronic expression construct comprising the wild type NS3-NS5B regions of HCV type 1b translated from an internal ribosome entry site (IRES) from encephalomyocarditis virus (EMCV), preceded by a reporter portion (FfL-luciferase), and a selectable marker portion (neo^R, neomycine phosphotransferase). The construct is bordered by 5′ and 3′ NTRs (non-translated regions) from HCV genotype 1b. Continued culture of the replicon cells in the presence of G418 (neo^R) is dependent on the replication of the HCV-RNA. The stably transfected replicon cells that express HCV-RNA, which replicates autonomously and to high levels, encoding inter alia luciferase, were used for screening the antiviral compounds.
The replicon cells were plated in 384-well plates in the presence of the test and control compounds which were added in various concentrations. Following an incubation of three days, HCV replication was measured by assaying luciferase activity (using standard luciferase assay substrates and reagents and a Perkin Elmer ViewLux™ ultraHTS microplate imager). Replicon cells in the control cultures have high luciferase expression in the absence of any inhibitor. The inhibitory activity of the compound on luciferase activity was monitored on the Huh-Luc cells, enabling a dose-response curve for each test compound. EC50 values were then calculated, which value represents the amount of the compound required to decrease the level of detected luciferase activity by 50%, or more specifically, the ability of the genetically linked HCV replicon RNA to replicate.

[3] = Cytotoxicity in Huh-7 cells; format: cell-based; details: human
Source text: as §1, with “inhibitors. […]” for “inhibitors.”

[4] = system: HIV; test: HIV activity; format: cell-based; details: Human immunodeficiency virus 1, read-out: EC50 (μM) (HIV)
Source text: (§2) Also the HIV activity is given (EC50 HIV (μM)) and the cellular toxicity in the HIV cell-line (CC50 (μM) (MT-4)).

[5] = Cellular toxicity in the HIV cell-line MT-4; format: cell-based; details: human, MT-4 cells, read-out: CC50 (μM) (MT4)
Source text: as §2

[6] = Huh-Luc replicon cells, HCV type 1b, three days incubation, luciferase activity

| SMILES | activity against HIV [1] | EC50 [2, 6] | CC50 [3] | EC50 [4] | CC50 [5] | EC50 [2] |
| --- | --- | --- | --- | --- | --- | --- |
| Cc1cn([C@@H]2O[C@H](CO)[C@@H](O)[C@]23CCO3)c(=O)[nH]c1=O [1-(2-O,2-C-ethano-β-D-ribofuranosyl)thymine] | no activity | – | – | – | – | – |
| O=c1ccn([C@@H]2O[C@H](CO)[C@@H](O)[C@]23CCO3)c(=O)[nH]1 [1-(2-O,2-C-ethano-β-D-ribofuranosyl)uracil] | no activity | – | – | – | – | – |
| CC[C@H](NP(=O)(OC[C@H]1O[C@@H](n2ccc(=O)[nH]c2=O)[C@@]2(CCO2)[C@@H]1O)Oc1ccccc1)C(=O)OCc1ccccc1 (stereo partly drawn) [Compound 12a] | – | 3.4 µM | > 98 µM | > 98 µM | > 98 µM | – |
| C[C@H](NP(=O)(OC[C@H]1O[C@@H](n2ccc(=O)[nH]c2=O)[C@@]2(CCO2)[C@@H]1O)Oc1ccccc1)C(=O)OCc1ccccc1 (stereo partly drawn) [Compound 12b] | – | 3.7 µM | > 98 µM | > 98 µM | > 98 µM | – |
| C[C@H](NP(=O)(OC[C@H]1O[C@@H](n2ccc(=O)[nH]c2=O)[C@@]2(CCO2)[C@@H]1O)Oc1ccccc1)C(=O)OCC(C)(C)C (stereo partly drawn) [Compound 12c] | – | 5.6 µM | > 98 µM | > 98 µM | > 98 µM | – |
| CCCCOC(=O)[C@H](C)NP(=O)(OC[C@H]1O[C@@H](n2ccc(=O)[nH]c2=O)[C@@]2(CCO2)[C@@H]1O)Oc1ccccc1 (stereo partly drawn) [Compound 12d] | – | 5.5 µM | > 98 µM | > 98 µM | > 98 µM | – |
| COC(=O)C(C)(C)NP(=O)(OC[C@H]1O[C@@H](n2ccc(=O)[nH]c2=O)[C@@]2(CCO2)[C@@H]1O)Oc1ccccc1 (stereo partly drawn) [Compound 12e, methyl 2-[[[(4R,5R,7R,8R)-5-(2,4-dioxo-3,4-dihydropyrimidin-1(2H)-yl)-8-hydroxy-1,6-dioxaspiro[3.4]octan-7-yl]methoxy](phenoxy)phosphorylamino]-2-methylpropanoate] | – | 23.4 µM | > 98 µM | > 98 µM | > 98 µM | – |
| Cc1ccc(C(C)C)c(OP(=O)(N[C@@H](C)C(=O)OCc2ccccc2)OC[C@H]2O[C@@H](n3ccc(=O)[nH]c3=O)[C@@]3(CCO3)[C@@H]2O)c1 (stereo partly drawn) [Compound 12f] | – | 8.7 µM | 18.7 µM | > 98 µM | 1.3 µM | – |
| CC(C)OC(=O)[C@H](C)NP(=O)(OC[C@H]1O[C@@H](n2ccc(=O)[nH]c2=O)[C@@]2(CCO2)[C@@H]1O)Oc1ccccc1 (stereo partly drawn) [Compound 12g] | – | 17.8 µM | > 98 µM | > 98 µM | > 98 µM | – |
| O=C(OCc1ccccc1)[C@@H](NP(=O)(OC[C@H]1O[C@@H](n2ccc(=O)[nH]c2=O)[C@@]2(CCO2)[C@@H]1O)Oc1ccccc1)c1ccccc1 (stereo partly drawn) [Compound 12h] | – | – | > 88 µM | > 98 µM | > 98 µM | 79.6 µM |
| CC[C@H](NP(=O)(OC[C@H]1O[C@@H](n2ccc(=O)[nH]c2=O)[C@@]2(CCO2)[C@@H]1O)Oc1ccccc1)C(=O)OC(C)C (stereo partly drawn) [Compound 12i] | – | > 96 µM | > 98 µM | > 98 µM | > 98 µM | – |
| C[C@H](NP(=O)(OC[C@H]1O[C@@H](n2ccc(=O)[nH]c2=O)[C@@]2(CCO2)[C@@H]1O)Oc1ccc(Cl)cc1)C(=O)OCc1ccccc1 (stereo partly drawn) [Compound 12j] | – | 0.7 µM | > 98 µM | > 98 µM | > 98 µM | – |
| C[C@H](NP(=O)(OC[C@H]1O[C@@H](n2ccc(=O)[nH]c2=O)[C@@]2(CCO2)[C@@H]1O)Oc1cccc2ccccc12)C(=O)OCc1ccccc1 (stereo partly drawn) [Compound 12k] | – | 2 µM | > 98 µM | > 76.9 µM | > 98 µM | – |
| CC(C)COC(=O)[C@H](C)NP(=O)(OC[C@H]1O[C@@H](n2ccc(=O)[nH]c2=O)[C@@]2(CCO2)[C@@H]1O)Oc1ccccc1 (stereo partly drawn) [Compound 12l] | – | 0.44 µM | > 98 µM | > 98 µM | > 98 µM | – |
| O=C(CNP(=O)(OC[C@H]1O[C@@H](n2ccc(=O)[nH]c2=O)[C@@]2(CCO2)[C@@H]1O)Oc1ccc(Cl)cc1)OCc1ccccc1 (stereo partly drawn) [Compound 12m] | – | 7.17 µM | > 98 µM | > 98 µM | > 98 µM | – |
